Consider ten molecules from patent publication US20070010397A1, “Safeners and their application” (priority 2003, published 2007).

Data set [1] concerns wheat (variety: Norin No.61). Put plainly: Test for safening effect against phytotoxicity of herbicidal compounds against wheat. Format: in vivo. As to conditions: for Phytotoxicity %: wheat seeds in dish, after 5 days; for Expected value E by Colby's equation (Phytotoxicity %): wheat. The method, then: Preparation of Test Solution
Carrier: Acetone 5 parts by weight
Surfactant: Benzyloxy polyglycol ether 1 part by weight
A prescribed amount of the test solution is prepared by diluting with water the formulation obtained by mixing the above-mentioned carrier and surfactant with 1 part by weight of the active compounds (safeners and herbicidal compounds).
Test Example 1: Test for Safening Effect against Phytotoxicity of Herbicidal Compounds against Wheat
Seeds of wheat (variety: Norin No.61) were sown on absorbent cotton in a dish, containing the previously prepared, diluted solution with the prescribed concentration of the test compounds, and grown in a climate chamber. After 5 days the degree of phytotoxicity, particularly bleaching state, was observed and evaluated in 0-100%.
100% =Complete bleaching or withering state
(§1) Test results were evaluated by Colby's equation. Colby's equation: [formula]
E: Expected value of phytotoxicity by mixing
X: Measured value of phytotoxicity by one active compound • Y: Measured value of phytotoxicity by the other active compound Table 1

In data set [2] the test system is paddy rice (variety: Nipponbare). Kind of data set: Test for safening effect against phytotoxicity of herbicidal compounds against paddy rice. Format: in vivo. The method, then:
as §1
Test Example 2: Test for Safening Effect against Phytotoxicity of Herbicidal Compounds against Paddy Rice (Method)
Two seedlings of paddy rice (variety: Nipponbare) of 2.5 leaf stage were transplanted in a plastic pot under submerged conditions with a trnsplantation depth of 0 cm. A diluted solution with the prescribed concentration of the 4% granules of the compound No. I-1 and herbicidal compounds were applied on the water surface. Three weeks after the application the degree of phytotoxicity was observed and evaluated in 0-100%.
100%=Complete withering state

[3] abbreviates: safener 10 ppm alone (H-1 0 ppm), 0% = no phytotoxicity, 100% = complete bleaching or withering.
The mark [4] stands for this setting: safener 50 ppm alone (H-1 0 ppm).

Structures are written as SMILES.

`CCC(CC)c1ccc(NC(=O)c2snc(Cl)c2Cl)cc1` [No. I-5]: the Phytotoxicity % in data set [1] (safener 10 ppm + H-1 10 ppm) is 30%; in data set [1] (setting [3]), 0%; in data set [1] (safener 50 ppm + H-1 10 ppm), 10%; in data set [1] (setting [4]), 0%. In addition, the “Expected value E by Colby's equation (Phytotoxicity %)” value (“Expected value E … (Phytotoxicity %)” for short) in data set [1] (safener 10 ppm + H-1 10 ppm) and in data set [1] (safener 50 ppm + H-1 10 ppm) was 50% throughout.

In the case of `CS(=O)(=O)c1ccc(C(=O)C2=C(O)CCCC2=O)c(Cl)c1COCC1CCCO1` (stereo not drawn) [H-1], the Phytotoxicity % in data set [1] (H-1 10 ppm alone (safener 0 ppm)) is given as 50%; in data set [2] (paddy rice, three weeks after application, H-1 0.6 kg/ha + No. I-1 1 kg/ha), 10%; in data set [2] (paddy rice, three weeks after application, H-1 0.6 kg/ha alone (No. I-1 0 kg/ha)), 30%. The “Expected value E … (Phytotoxicity %)” value in data set [2] (paddy rice, H-1 0.6 kg/ha + No. I-1 1 kg/ha) amounted to 30%.

For the molecule `Cc1ccc(NC(=O)c2snc(Cl)c2Cl)c(C)c1` [No. I-2], the Phytotoxicity % stood at 30% in data set [1] (safener 10 ppm + H-1 10 ppm), 0% in data set [1] (setting [3]), 10% in data set [1] (safener 50 ppm + H-1 10 ppm) and 0% in data set [1] (setting [4]). For the same molecule, the “Expected value E … (Phytotoxicity %)” value in data set [1] (safener 10 ppm + H-1 10 ppm) and in data set [1] (safener 50 ppm + H-1 10 ppm) was 50% throughout.

On to `CC(C)(C)CSCc1ccc(NC(=O)c2snc(Cl)c2Cl)cc1` [No. I-7], for which the Phytotoxicity % is listed as 30% in data set [1] (safener 10 ppm + H-1 10 ppm), 0% in data set [1] (setting [3]), 20% in data set [1] (safener 50 ppm + H-1 10 ppm) and 0% in data set [1] (setting [4]). Besides, the “Expected value E … (Phytotoxicity %)” value in data set [1] (safener 10 ppm + H-1 10 ppm) and in data set [1] (safener 50 ppm + H-1 10 ppm) was 50% in each case.

On to `CCN(CC)Cc1ccc(CNC(=O)c2snc(Cl)c2Cl)cc1` [No. I-6], for which the Phytotoxicity % in data set [1] (safener 10 ppm + H-1 10 ppm) is 15%; in data set [1] (setting [3]) it was 0%; in data set [1] (safener 50 ppm + H-1 10 ppm), 15%; in data set [1] (setting [4]), 0%. Moreover, the “Expected value E … (Phytotoxicity %)” value in data set [1] (safener 10 ppm + H-1 10 ppm) and in data set [1] (safener 50 ppm + H-1 10 ppm) was 50% each time.

Take `N#Cc1ccccc1NC(=O)c1snc(Cl)c1Cl` [No. I-1]: the Phytotoxicity % in data set [1] (safener 10 ppm + H-1 10 ppm) was 20%; in data set [1] (setting [3]), 0%; in data set [1] (safener 50 ppm + H-1 10 ppm), 20%; in data set [1] (setting [4]) it was 0%; in data set [2] (paddy rice 2.5 leaf stage, three weeks after application, No. I-1 (4% granules) 1 kg/ha alone, herbicide 0 kg/ha), 0%. The “Expected value E … (Phytotoxicity %)” value in data set [1] (safener 10 ppm + H-1 10 ppm) and in data set [1] (safener 50 ppm + H-1 10 ppm) was 50% each time.

In the case of `CCC(C)c1ccc(NC(=O)c2snc(Cl)c2Cl)cc1` (stereo not drawn) [No. I-4], the Phytotoxicity % was 10% in data set [1] (safener 10 ppm + H-1 10 ppm), 0% in data set [1] (setting [3]), 5% in data set [1] (safener 50 ppm + H-1 10 ppm) and 0% in data set [1] (setting [4]). For the same molecule, the “Expected value E … (Phytotoxicity %)” value in data set [1] (safener 10 ppm + H-1 10 ppm) and in data set [1] (safener 50 ppm + H-1 10 ppm) was 50% throughout.

As to `COC(=O)c1ccccc1CS(=O)(=O)NC(=O)Nc1nc(OC)cc(OC)n1` [H-2, Bensuiliron-methyl], in data set [2] (in vivo), the “Phytotoxicity %” value came to 40%.

On to `CN(C)CNC(=O)c1snc(Cl)c1Cl` [No. I-3], for which the Phytotoxicity % in data set [1] (safener 10 ppm + H-1 10 ppm) is 5%; in data set [1] (setting [3]), 0%; in data set [1] (safener 50 ppm + H-1 10 ppm) it was 0%; in data set [1] (setting [4]), 0%. Moreover, the “Expected value E … (Phytotoxicity %)” value in data set [1] (safener 10 ppm + H-1 10 ppm) and in data set [1] (safener 50 ppm + H-1 10 ppm) was 50% in each case.

For `CCOC(=O)[C@@H](C)Oc1ccc(Oc2nc3ccc(Cl)cc3o2)cc1` [H-3, Fenoxaprop-P-ethyl], the “Phytotoxicity %” value turned out to be 40% in data set [2] (paddy rice, three weeks after application, H-3 0.1 kg/ha + No. I-1 1 kg/ha) and 70% in data set [2] (paddy rice, three weeks after application, H-3 0.1 kg/ha alone (No. I-1 0 kg/ha)). Also, the “Expected value E … (Phytotoxicity %)” value in data set [2] (paddy rice, H-3 0.1 kg/ha + No. I-1 1 kg/ha) was found to be 70%.
